One experiment has as its system BJ fibroblast cells. The experiment in a line: Cytokine screen in BJ fibroblast cells, human CCL-5/RANTES ELISA. Type of experiment: cell-based. To be noted: BJ fibroblasts, 500 ng modRNA, 18 h to 22 h. The procedure:
At 2 or 3 days prior to transfection, 100,000 BJ fibroblast cells (ATCC no. CRL-2522; Manassas, Va.) were harvested by treatment with trypsin-EDTA solution (LifeTechnologies, Grand Island, N.Y.) and seeded in a total volume of 500 ul EMEM medium (supplemented with 10% FCS and 10% Glutamax, both LifeTechnologies, Grand Island, N.Y.) per well in 24-well cell culture plates (Corning, Manassas, Va.). The cells were grown at 37° C. in a 5% CO2 atmosphere overnight. On the next day, 500 ng modRNA, harboring chemical modifications on the bases or the ribose units, were diluted in 25 ul final volume of OPTI-MEM (LifeTechnologies, Grand Island, N.Y.). Lipofectamine 2000 (LifeTechnologies, Grand Island, N.Y.) was used as transfection reagent and 1.0 ul was diluted in 25 ul final volume of OPTI-MEM. After 5 min incubation at room temperature, both solutions were combined and incubated an additional 15 min at room temperature. The 50 ul were added to the 500 ul cell culture medium containing the BJ fibroblast cells. The plates were then incubated as described above.
After 18 h to 22 h incubation, cell culture supernatants were collected and centrifuged at 10,000 rcf for 2 min. The cleared supernatants were transferred and analyzed with a human IFN-beta ELISA (R&D Systems, Minneapolis, Minn.; Cat. #s 41410-2) and human CCL-5/RANTES ELISA (R&D Systems, Minneapolis, Minn.; Cat. #s SRN00B) according to the manufacturer instructions. All samples were diluted until the determined values were within the linear range of the ELISA standard curves using a BioTek Synergy H1 plate reader (BioTek, Winooski, Vt.).
On the technique in general: In an ELISA, binding on a coated surface is turned into a signal by an enzyme label.

Another experiment deals with T7 RNA polymerase (Escherichia phage T7, UniProt P00573). The experiment in a line: In vitro transcription yields of modified mRNA. Type of experiment: biochemical. To be noted: for EPO In Vitro Transcription yield: EPO mRNA made with the modified NTP(s); for GCSF In Vitro Transcription yield: GCSF mRNA made with the modified NTP(s); for Luc In Vitro Transcription yield: Luciferase mRNA made with the modified NTP(s). How it is done:
The in vitro transcription reaction generates mRNA containing modified nucleotides or modified RNA. The input nucleotide triphosphate (NTP) mix is made in-house using natural and unnatural NTPs.
A typical in vitro transcription reaction includes the following:
Incubation at 37° C. for 3 hr-5 hrs.
The crude IVT mix may be stored at 4° C. overnight for cleanup the next day. 1 U of RNase-free DNase is then used to digest the original template. After 15 minutes of incubation at 37° C., the mRNA is purified using Ambion's […]™ Kit (Austin, Tex.) following the manufacturer's instructions. This kit can purify up to 500 μg of RNA. Following the cleanup, the RNA is quantified using the NanoDrop and analyzed by agarose gel electrophoresis to confirm the RNA is the proper size and that no degradation of the RNA has occurred.
Modified mRNAs in TE buffer (1 μl) are used for Nanodrop UV absorbance readings to quantitate the yield of each modified mRNA from an in vitro transcription reaction (UV absorbance traces are not shown).

The subject of another experiment is human PBMC. The experiment can be described thus: PBMC cytokine assay, interferon-alpha production (IFN-alpha multi-subtype ELISA). Type of experiment: cell-based. How it is done:
50 mL of human blood from three donors was received from Research Blood Components (Brighton, Mass.) in sodium heparin tubes. […] The tubes were centrifuged at 2000 rpm for 30 minutes with low acceleration and braking (Thermo, Waltham, Mass., 75004506). The tubes were removed and the buffy coat PBMC layers were gently transferred to a fresh 50 mL conical and washed with DPBS. The tubes were centrifuged at 1450 rpm for 10 minutes. The supernatant was aspirated and the PBMC pellets were resuspended and washed in 50 mL of DPBS. The tubes were centrifuged at 1450 rpm for 10 minutes. […] The cell suspensions were adjusted to a concentration of 3.0×10^6 cells/mL live cells. […] Within 30 minutes, transfection mixtures were added to each well at a volume of 50 μL per well. […] The transfection mixtures were then transferred to each of the human PBMC plates at 50 μL per well (6 wells per mRNA sample). The plates were then incubated at 37° C. […] In order to harvest the supernatant, plates were centrifuged at 1450 rpm for 5 min in a swinging plate rotor. The supernatant of 6 wells transfected with the same mRNA was carefully harvested and pooled in a single well of a fresh 96-well plate. Supernatants were either frozen or used fresh until ELISA analysis was done. The ability of unmodified and modified mRNA to trigger innate immune recognition as measured by interferon-alpha production.

T7 RNA polymerase, sequence (P00573 whole entry): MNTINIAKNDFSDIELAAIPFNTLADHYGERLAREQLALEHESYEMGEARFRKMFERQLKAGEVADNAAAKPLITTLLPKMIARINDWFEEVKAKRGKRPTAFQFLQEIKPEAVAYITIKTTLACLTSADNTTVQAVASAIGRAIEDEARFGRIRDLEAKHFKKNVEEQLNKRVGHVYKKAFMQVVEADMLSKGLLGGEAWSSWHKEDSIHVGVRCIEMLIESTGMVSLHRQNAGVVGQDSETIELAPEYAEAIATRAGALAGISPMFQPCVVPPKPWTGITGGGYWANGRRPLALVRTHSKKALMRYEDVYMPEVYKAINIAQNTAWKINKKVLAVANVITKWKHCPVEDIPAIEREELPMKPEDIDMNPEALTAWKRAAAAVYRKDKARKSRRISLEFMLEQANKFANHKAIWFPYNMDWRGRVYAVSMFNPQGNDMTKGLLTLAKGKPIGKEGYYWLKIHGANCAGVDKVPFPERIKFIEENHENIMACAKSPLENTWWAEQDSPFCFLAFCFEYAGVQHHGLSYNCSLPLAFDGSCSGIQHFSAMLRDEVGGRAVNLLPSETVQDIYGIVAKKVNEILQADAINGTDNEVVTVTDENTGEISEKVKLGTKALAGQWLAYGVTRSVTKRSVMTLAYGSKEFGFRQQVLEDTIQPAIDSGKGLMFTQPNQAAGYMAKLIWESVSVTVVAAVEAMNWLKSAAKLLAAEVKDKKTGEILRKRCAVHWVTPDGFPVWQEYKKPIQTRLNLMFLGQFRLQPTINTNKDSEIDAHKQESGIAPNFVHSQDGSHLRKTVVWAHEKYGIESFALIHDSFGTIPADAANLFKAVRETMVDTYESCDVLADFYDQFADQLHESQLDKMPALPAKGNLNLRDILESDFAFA

Consider “1-methyl-pseudouridine TP, ATP, GTP, CTP”, for which, in the experiment with BJ fibroblast cells, the “Luc mRNA RANTES” value is 5473 pg/mL, the “hEpo mRNA RANTES” value was determined as 8780 pg/mL and the “hGCSF mRNA RANTES” value stood at 4816 pg/mL.
On to 2-thio-pseudouridine TP, ATP, GTP, CTP, for which, in the experiment with BJ fibroblast cells, the “Luc mRNA RANTES” value turned out to be 1706 pg/mL, the “hEpo mRNA RANTES” value is 5440 pg/mL and the “hGCSF mRNA RANTES” value was 2106 pg/mL.
As for 5-bromocytidine TP, ATP, GTP, UTP, in the experiment with BJ fibroblast cells, the “Luc mRNA RANTES” value worked out at 1380 pg/mL, the “hEpo mRNA RANTES” value was determined as 1343 pg/mL and the “hGCSF mRNA RANTES” value was 1900 pg/mL.
Consider “5-hydroxymethyl-cytidine TP, ATP, GTP, UTP”, for which, in the experiment with BJ fibroblast cells, the “Luc mRNA RANTES” value is 9826 pg/mL, the “hEpo mRNA RANTES” value is 2160 pg/mL and the “hGCSF mRNA RANTES” value was 9063 pg/mL.
The corresponding values for 5-methoxy-uridine TP, ATP, GTP, UTP are 33.33 pg/mL, -6.66 pg/mL and -6.66 pg/mL.
On the same counts, the results for “5-trifluromethylcytidine TP, ATP, GTP, UTP” are 2303 pg/mL, 7593 pg/mL and 4203 pg/mL.
In the case of `Nc1ncnc2c1nnn2[C@@H]1O[C@H](COP(=O)(O)OP(=O)(O)OP(=O)(O)O)C(O)C1O` (stereo partly drawn) [00901011003 (377), 8-Aza-ATP], at T7 RNA polymerase, the “EPO In Vitro Transcription yield” value is on record as 0.0055 mg, the “GCSF In Vitro Transcription yield” value was 0.03 mg and the “Luc In Vitro Transcription yield” value is 0.0262 mg.
With `O=c1[nH]c(=O)n([C@@H]2O[C@H](COP(=O)(O)OP(=O)(O)OP(=O)(O)O)C(O)C2O)cc1C(F)(F)F` (stereo partly drawn) [00901013002 (352), 5-Trifluoromethyl-UTP], at T7 RNA polymerase, the “EPO In Vitro Transcription yield” value is 0.3830 mg, the “GCSF In Vitro Transcription yield” value worked out at 0.5102 mg and the “Luc In Vitro Transcription yield” value was 0.3662 mg.
For the compound `CNCc1cn([C@@H]2O[C@H](COP(=O)(O)OP(=O)(O)OP(=O)(O)O)C(O)C2O)c(=O)[nH]c1=O` (stereo partly drawn) [00901013006 (353), 5-Methylamino methyl-UTP], at T7 RNA polymerase, the “EPO In Vitro Transcription yield” value was found to be 0.3060 mg, the “GCSF In Vitro Transcription yield” value is recorded as 0.3494 mg and the “Luc In Vitro Transcription yield” value stood at 0.2914 mg.
Take `O=c1[nH]c(=S)ccn1[C@@H]1O[C@H](COP(=O)(O)OP(=O)(O)OP(=O)(O)O)C(O)C1O` (stereo partly drawn) [00901013011 (2), 4-Thio-UTP]: at T7 RNA polymerase, the “EPO In Vitro Transcription yield” value is 0.0416 mg, the “GCSF In Vitro Transcription yield” value worked out at 0.0759 mg and the “Luc In Vitro Transcription yield” value is recorded as 0.1625 mg.
Take `Cn1c(=O)[nH]cc([C@@H]2O[C@H](COP(=O)(O)OP(=O)(O)OP(=O)(O)O)C(O)C2O)c1=O` (stereo partly drawn) [00901015187 (236), 3-Methyl-pseudo-UTP]: on T7 RNA polymerase, the “EPO In Vitro Transcription yield” value was 0.0125 mg, the “GCSF In Vitro Transcription yield” value was determined as 0.0120 mg and the “Luc In Vitro Transcription yield” value is listed as 0.0152 mg.
On to `Nc1nc(=O)n([C@@H]2O[C@H](COP(=O)(O)OP(=O)(O)OP(=O)(O)O)C(O)C2O)cc1C(F)(F)F` (stereo partly drawn) [00901016002 (351), 5-Trifluoromethyl-CTP], for which the “interferon-alpha concentration in PBMC supernatant” value in the experiment with human PBMC (Luc mRNA, 1st value in cell) stood at 6670 pg/mL; in the experiment on human PBMC (Luc mRNA, 2nd value in cell), 2190 pg/mL; in the experiment on human PBMC (Luc mRNA, 3rd value in cell) it was 6410 pg/mL; in the experiment with human PBMC (hEPO mRNA, 1st value in cell), 4440 pg/mL; with human PBMC (hEPO mRNA, 2nd value in cell), 3100 pg/mL; in the experiment on human PBMC (hEPO mRNA, 3rd value in cell) it was 1412.5 pg/mL. Moreover, the “interferon-alpha concentration in PBMC supernatant” value in the experiment on human PBMC (hGCSF mRNA, 1st value in cell) stood at 6253.33 pg/mL; in the experiment with human PBMC (hGCSF mRNA, 2nd value in cell), 6725 pg/mL; in the experiment with human PBMC (hGCSF mRNA, 3rd value in cell) it was 6280 pg/mL.
For `Nc1nc(N)c2ncn([C@@H]3O[C@H](COP(=O)(O)OP(=O)(O)OP(=O)(O)O)C(O)C3O)c2n1` (stereo partly drawn) [03601011002 (154), 2-Amino-ATP], on T7 RNA polymerase, the “EPO In Vitro Transcription yield” value worked out at 0.2612 mg, the “GCSF In Vitro Transcription yield” value was found to be 0.1567 mg and the “Luc In Vitro Transcription yield” value is 0.1215 mg.
With `O=c1[nH]c(=O)n(CC(F)(F)F)cc1[C@@H]1O[C@H](COP(=O)(O)OP(=O)(O)OP(=O)(O)O)C(O)C1O` (stereo partly drawn) [03601015005 (175), 1-(2,2,2-Trifluoroethyl) pseudo-UTP], at T7 RNA polymerase, the “EPO In Vitro Transcription yield” value was 0.3379 mg, the “GCSF In Vitro Transcription yield” value is 0.2332 mg and the “Luc In Vitro Transcription yield” value is listed as 0.4388 mg.
Regarding `Cn1c(N)nc2c(ncn2[C@@H]2O[C@H](COP(=O)(O)OP(=O)(O)OP(=O)(O)O)C(O)C2O)c1=O` (stereo partly drawn) [Compound 00901012008, N1-Me-GTP], on T7 RNA polymerase, the “EPO In Vitro Transcription yield” value came to 0.0032 mg, the “GCSF In Vitro Transcription yield” value is 0.0050 mg and the “Luc In Vitro Transcription yield” value is reported as 0.0059 mg.
Turning to `Cn1c(=N)ccn([C@@H]2O[C@H](COP(=O)(O)OP(=O)(O)OP(=O)(O)O)C(O)C2O)c1=O` (stereo partly drawn) [Compound 00901014006, 3-Methyl-CTP], on T7 RNA polymerase, the “EPO In Vitro Transcription yield” value came out at 0.0060 mg, the “GCSF In Vitro Transcription yield” value is given as 0.0141 mg and the “Luc In Vitro Transcription yield” value is 0.0068 mg.
As for `Nc1ccn([C@@H]2O[C@H](COP(=O)(O)OP(=O)(O)OP(=O)(O)O)C(O)C2O)c(=S)n1` (stereo partly drawn) [Compound 00901014010, 2-Thio-CTP], on T7 RNA polymerase, the “EPO In Vitro Transcription yield” value stood at 0.0061 mg, the “GCSF In Vitro Transcription yield” value worked out at 0.0076 mg and the “Luc In Vitro Transcription yield” value is 0.0073 mg.
N4-acetyl-cytidine TP, ATP, GTP, UTP: in the experiment on BJ fibroblast cells, the “Luc mRNA RANTES” value was 2546 pg/mL, the “hEpo mRNA RANTES” value was found to be 4360 pg/mL and the “hGCSF mRNA RANTES” value came to 4103 pg/mL.
Consider pseudouridine TP, ATP, GTP, CTP, for which, in the experiment on BJ fibroblast cells, the “Luc mRNA RANTES” value came to 4600 pg/mL, the “hEpo mRNA RANTES” value stood at 5490 pg/mL and the “hGCSF mRNA RANTES” value came to 5016 pg/mL.

The values are drawn from US20160304552A1, “MODIFIED NUCLEIC ACID MOLECULES AND USES THEREOF” (MODERNA THERAPEUTICS, INC., priority 2013, published 2016).
